Results taken from patent US11624093B2, “Tumor suppressor and oncogene biomarkers predictive of anti-immune checkpoint inhibitor response” (Dana-Farber Cancer Institute, Inc., priority 2014, dated 2023).

Columns and labels:
[1] = test system: Kras mutant mice, total lung and tumor infiltrating immune cells; test: Immune cell analysis of lungs of Kras mutant mice treated with the arginase inhibitor; type: in vivo, mouse; conditions: 30 mg/kg once daily gavage, 1 week
Text: (§1) All EGFR transgenic mice carrying tetracycline inducible human EGFR cDNA were previously generated, crossed with CC10-RTTA mice expressing reverse tetracycline activator from lung Clara cell CC10 promoter, and maintained in mixed background. Double positive progeny were fed with doxycycline diet starting at 5-6 weeks of age for the induction of tumors and maintained on doxycyline throughout the study. EGFR and KrasG12D mice were maintained in mixed (C57Bl/6, FVB, and S129) background and given adeno virus expressing Cre recombinase (5×10^6 titer) intranasally at 5 weeks of age for induction of recombination and tumor formation. All breedings and in vivo experiments were performed with the approval of the DFC1 Animal Care and Use Committee.
(§2) The arginase inhibitor (R)-2-Amino-6-borono-2-(2-(piperidin-1-yl)ethyl)hexanoic acid, also known as compound HY-15775/compound 9, was obtained from MedChem Express and is well known in the art (see, for example, Van Zandt et al. (2013) J. Med. Chem. 56:2568-2580). The compound was administered to mice at 30 mg/kg in phosphate-buffered saline (PBS) via oral gavage once daily.
Total lung cell and tumor infiltrating immune cell characterization was performed as described in Akbay et al. (2013) Cancer Discov. 3:1355-1363.

[2] = test system: lung tumors of Kras^G12D mice; test: MRI lung tumor volume quantification in Kras^G12D mice treated with the arginase inhibitor; type: in vivo, mouse; conditions: 30 mg/kg once daily gavage, 1 week
Text: as §1, §2
Animals were anesthetized with 1.5-2% isoflurane (IsoFlo; Abbott) in 100% oxygen. […] Tumor volume quantifications were performed using 3D-Slicer software as described in Weaver et al. (2012) Cancer Res. 72:921-933.

N[C@](CCCCB(O)O)(CCN1CCCCC1)C(=O)O [compound 9/HY-15775, (R)-2-Amino-6-borono-2-(2-(piperidin-1-yl)ethyl)hexanoic acid]
CD8 T cells in the total T cell population [1]: increase | CD11c and CD11b myeloid populations [1]: no change | ratio of CD4 T cells in the total T cell population [1]: decrease | ratio of CD8 to FoxP3 cells (cytotoxic T cells to regulatory T cells) [1]: increase | total T cell counts [1]: increase | lung tumor volumes (change compared to baseline, MRI) [2]: decreases
